Measurements as given in article PMC11859928, “Design, Synthesis, and Antiproliferative Activity of Novel Indole/1,2,4-Triazole Hybrids as Tubulin Polymerization Inhibitors” (Pharmaceuticals, 2025).
Read-outs that look alike come from different tables or passages of the source.

Columns and labels:
UO-31 = assay: NCI five-dose assay; format: cell-based, human; conditions: UO-31, Renal cancer
Melanoma subpanel = assay: NCI five-dose assay, subpanel mean; format: cell-based, human
OVCAR-5 = assay: NCI five-dose assay; format: cell-based, human; conditions: OVCAR-5, Ovarian cancer
UACC-62 = assay: NCI five-dose assay; format: cell-based, human; conditions: UACC-62, Melanoma
HOP-92 = assay: NCI five-dose assay; format: cell-based, human; conditions: HOP-92, Non-small cell lung cancer
SNB-75 = assay: NCI five-dose assay; format: cell-based, human; conditions: SNB-75, CNS cancer
SF-295 = assay: NCI five-dose assay; format: cell-based, human; conditions: SF-295, CNS cancer
SK-MEL-2 = assay: NCI five-dose assay; format: cell-based, human; conditions: SK-MEL-2, Melanoma
A498 = assay: NCI five-dose assay; format: cell-based, human; conditions: A498, Renal cancer
NCI-H322M = assay: NCI five-dose assay; format: cell-based, human; conditions: Non-small cell lung cancer
SK-MEL-28 = assay: NCI five-dose assay; format: cell-based, human; conditions: SK-MEL-28, Melanoma
Renal cancer subpanel = assay: NCI five-dose assay, subpanel mean; format: cell-based, human
Ovarian cancer subpanel = assay: NCI five-dose assay, subpanel mean; format: cell-based, human
IGROV1 = assay: NCI five-dose assay; format: cell-based, human; conditions: IGROV1, Ovarian cancer
RXF393 = assay: NCI five-dose assay; format: cell-based, human; conditions: RXF393, Renal cancer
KM12 = assay: NCI five-dose assay; format: cell-based, human; conditions: KM12, Colon cancer
SR = assay: NCI five-dose assay; format: cell-based, human; conditions: Leukemia
MCF7 = assay: NCI five-dose assay; format: cell-based, human; conditions: MCF7, Breast cancer
TK-10 = assay: NCI five-dose assay; format: cell-based, human; conditions: TK-10, Renal cancer
A549/ATCC = assay: NCI five-dose assay; format: cell-based, human; conditions: Non-small cell lung cancer
SK-MEL-5 = assay: NCI five-dose assay; format: cell-based, human; conditions: SK-MEL-5, Melanoma
tubulin = target: T1, tubulin (Sus scrofa, UniProt P02550+P02554); assay: Tubulin polymerization inhibitory assay; format: biochemical
T1 construct: purchased Cytoskeleton Inc., Denver, CO, USA
T1 sequence (P02554 whole entry): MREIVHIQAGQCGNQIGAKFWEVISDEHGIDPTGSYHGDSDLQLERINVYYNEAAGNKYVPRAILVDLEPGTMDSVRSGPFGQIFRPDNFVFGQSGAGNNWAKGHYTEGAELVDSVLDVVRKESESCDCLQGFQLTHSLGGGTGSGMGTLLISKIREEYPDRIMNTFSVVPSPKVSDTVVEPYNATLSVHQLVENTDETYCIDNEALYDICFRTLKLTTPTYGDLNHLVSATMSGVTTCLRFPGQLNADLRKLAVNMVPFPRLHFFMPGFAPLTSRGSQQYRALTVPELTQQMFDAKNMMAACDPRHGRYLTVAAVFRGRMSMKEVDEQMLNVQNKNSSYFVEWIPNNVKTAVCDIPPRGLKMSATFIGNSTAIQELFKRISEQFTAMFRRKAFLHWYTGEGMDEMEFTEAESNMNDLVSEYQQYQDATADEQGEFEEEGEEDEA
T1 sequence (P02550 whole entry): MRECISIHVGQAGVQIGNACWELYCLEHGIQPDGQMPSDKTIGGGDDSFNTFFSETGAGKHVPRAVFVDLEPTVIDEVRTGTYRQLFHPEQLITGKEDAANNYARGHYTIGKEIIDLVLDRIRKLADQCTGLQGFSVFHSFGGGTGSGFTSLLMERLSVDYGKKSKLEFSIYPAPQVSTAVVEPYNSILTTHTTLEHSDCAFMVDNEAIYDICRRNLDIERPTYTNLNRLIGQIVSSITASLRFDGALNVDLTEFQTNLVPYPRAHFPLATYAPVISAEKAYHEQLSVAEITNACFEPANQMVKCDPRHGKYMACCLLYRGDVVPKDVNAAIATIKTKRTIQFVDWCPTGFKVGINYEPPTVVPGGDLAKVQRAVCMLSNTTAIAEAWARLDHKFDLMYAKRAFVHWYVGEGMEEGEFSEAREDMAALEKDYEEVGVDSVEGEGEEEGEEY
In short: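 Compound effects on tubulin polymerization were measured with the Tubulin Polymerization Assay Kit (Cytoskeleton Inc., Denver, CO, USA), run as the supplier instructs, which detects polymerization through enhancement of a fluorescent reporter. Docetaxel served as the stabilizing control and vincristine as the destabilizing control, each at 3 µM in PBS.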

NCI-H522 = assay: NCI five-dose assay; format: cell-based, human; conditions: NCI-H522, Non-small cell lung cancer
[1] = Homo sapiens, 48 h, read-out: LC50 (the source's name)
[2] = Homo sapiens, read-out: GI50 Conc. per Cell Lines

O/N=C(\CSc1nnc(-c2c[nH]c3ccccc23)n1-c1ccccc1)c1ccc(Br)cc1 [Compound 7i, (Z)-2-((5-(1H-Indol-3-yl)-4-phenyl-4H-1,2,4-triazol-3-yl)thio)-1-(4-bromophenyl) Ethanone Oxime]
CC50 (UO-31; [1]): 34.3 µM
GI50 (UO-31; [2]): 2.29 µM
TGI Conc. per Cell Lines (UO-31): 7.81 µM
GI50 (Melanoma subpanel; Homo sapiens, average sensitivity of all cell lines of the Melanoma subpanel, read-out: GI50 Subpanel MID b): 2.89 µM
GI50 Selectivity Ratio (MID a/MID b) (Melanoma subpanel; Melanoma subpanel): 0.97
LC50 (OVCAR-5; Homo sapiens, 48 h): 1.59 µM
GI50 (OVCAR-5; [2]): 2.18 µM
TGI Conc. per Cell Lines (OVCAR-5): 5.21 µM
CC50 (UACC-62; [1]): 7.93 µM
GI50 (UACC-62; [2]): 1.77 µM
TGI Conc. per Cell Lines (UACC-62): 3.74 µM
TGI Conc. per Cell Lines (HOP-92): 24.10 µM
CC50 (HOP-92; [1]): > 100 µM
GI50 (HOP-92; [2]): 3.66 µM
CC50 (SNB-75; [1]): 28.1 µM
GI50 (SNB-75; [2]): 1.87 µM
TGI Conc. per Cell Lines (SNB-75): 4.95 µM
CC50 (SF-295; [1]): 13.6 µM
GI50 (SF-295; [2]): 1.93 µM
TGI Conc. per Cell Lines (SF-295): 4.70 µM
CC50 (SK-MEL-2; [1]): 37.5 µM
GI50 (SK-MEL-2; [2]): 3.1 µM
TGI Conc. per Cell Lines (SK-MEL-2): 10.4 µM
TGI Conc. per Cell Lines (A498): 51.70 µM
LC50 (A498; Homo sapiens, 48 h): > 100 µM
GI50 (A498; [2]): 1.63 µM
CC50 (NCI-H322M; [1]): 93.3 µM
GI50 (NCI-H322M; [2]): 4.8 µM
TGI Conc. per Cell Lines (NCI-H322M): 24.20 µM
CC50 (SK-MEL-28; [1]): 44.8 µM
GI50 (SK-MEL-28; [2]): 3.4 µM
TGI Conc. per Cell Lines (SK-MEL-28): 12.50 µM
GI50 (Renal cancer subpanel; Homo sapiens, average sensitivity of all cell lines of the Renal cancer subpanel, read-out: GI50 Subpanel MID b): 2.87 µM
GI50 Selectivity Ratio (MID a/MID b) (Renal cancer subpanel; Renal cancer subpanel): 0.98
GI50 (Ovarian cancer subpanel; Homo sapiens, average sensitivity of all cell lines of the Ovarian cancer subpanel, read-out: GI50 Subpanel MID b): 2.79 µM
GI50 Selectivity Ratio (MID a/MID b) (Ovarian cancer subpanel; Ovarian cancer subpanel): 1.00
CC50 (IGROV1; Homo sapiens, IGROV-1, 48 h, read-out: LC50 (the source's name)): 38.3 µM
GI50 (IGROV1; Homo sapiens, IGROV-1, read-out: GI50 Conc. per Cell Lines): 3.41 µM
TGI Conc. per Cell Lines (IGROV1): 11.70 µM
LC50 (concentration killing 50% of cells) (RXF393; Homo sapiens, RXF 393, 48 h): 7.65 µM
GI50 (RXF393; Homo sapiens, RXF 393, read-out: GI50 Conc. per Cell Lines): 1.75 µM
TGI Conc. per Cell Lines (RXF393): 3.65 µM
CC50 (KM12; [1]): > 100 µM
GI50 (KM12; [2]): 4.15 µM
TGI Conc. per Cell Lines (KM12): 29.20 µM
CC50 (SR; [1]): > 100 µM
TGI Conc. per Cell Lines (SR): >100 µM
LC50 (MCF7; Homo sapiens, 48 h): 63.6 µM
GI50 (MCF7; [2]): 3.49 µM
TGI Conc. per Cell Lines (MCF7): 15.3 µM
CC50 (TK-10; [1]): 30.4 µM
GI50 (TK-10; [2]): 2.8 µM
TGI Conc. per Cell Lines (TK-10): 7.63 µM
CC50 (A549/ATCC; [1]): 31 µM
GI50 (A549/ATCC; [2]): 2.49 µM
TGI Conc. per Cell Lines (A549/ATCC): 6.66 µM
CC50 (SK-MEL-5; [1]): 35.8 µM
GI50 (SK-MEL-5; [2]): 3.55 µM
TGI Conc. per Cell Lines (SK-MEL-5): 12.80 µM
%inhibition (tubulin; conc 0.01 (unit not given; IC50 from this curve in µg/ml)): 6.76%
%inhibition (tubulin; conc 0.1 (unit not given; IC50 from this curve in µg/ml)): 21%
%inhibition (tubulin; conc 1 (unit not given; IC50 from this curve in µg/ml)): 47.4%
%inhibition (tubulin; conc 10 (unit not given; IC50 from this curve in µg/ml)): 68.5%
%inhibition (tubulin; conc 100 (unit not given; IC50 from this curve in µg/ml)): 87%
IC50 (tubulin; read-out: Tub. IC50±SD (converted)): 3.03 µM
IC50 (tubulin; read-out: Tubulin Inhibitory Effect, IC50): 3.03 ± 0.11 µM
CC50 (NCI-H522; [1]): 61.6 µM
GI50 (NCI-H522; [2]): 2.52 µM
TGI Conc. per Cell Lines (NCI-H522): 7.70 µM
